We go through ten compounds from ChEMBL document CHEMBL1201862, “PubChem BioAssay data set” (2004).

Activity calls are given as the source filed them.

Experiment [1] deals with Glycogen synthase kinase-3 alpha (Homo sapiens, UniProt P49840). Nature of the experiment: Inhibition of Human GSK-3 alpha Activity Measured in Biochemical System Using Microfluidics - 2063-06_Inhibitor_Dose_DryPowder_Activity_Set2. [Related pubchem assays (depositor defined):AID2709].
The target of experiment [2] is Glycogen synthase kinase-3 beta (Homo sapiens, UniProt P49841). Nature of the experiment: Inhibition of Human GSK-3 beta Activity Measured in Biochemical System Using Microfluidics - 2063-05_Inhibitor_Dose_DryPowder_Activity_Set2. [Related pubchem assays (depositor defined):AID2709].
Experiment [3] is described as follows: Counterscreen for antagonists of the orexin 1 receptor (OX1R; HCRTR1): Fluorescence-based cell-based high throughput dose response assay to identify antagonists of the parental CHO cell line. [Related pubchem assays (depositor defined):AID434989, AID435008, AID463079, AID485270, AID492963, AID492964, AID492965, AID493232, AID504699, AID504701]. It counts as functional.

For experiment [4], the target named is T1, Orexin/Hypocretin receptor type 1 (Homo sapiens, UniProt O43613). Nature of the experiment: Fluorescence-based cell-based high throughput dose response assay for antagonists of the orexin 1 receptor (OX1R; HCRTR1). [Related pubchem assays (depositor defined):AID434989, AID435008, AID463079, AID485270, AID492963, AID492964, AID492965, AID493232, AID504717, AID504718]. It counts as functional.

Experiment [5] addresses T2, Orexin receptor type 2 (Homo sapiens, UniProt O43614). Nature of the experiment: Counterscreen assay for antagonists of the orexin 1 receptor (OX1R; HCRTR1): Fluorescence-based cell-based dose response assay for antagonists of the orexin 2 receptor (OX2R; HCRTR2), run by assay provider. It counts as functional. On the technique in general: A counterscreen serves to expose hits that act by an unwanted route or on another target.

For experiment [6], the target named is T2, Orexin receptor type 2. Nature of the experiment: Counterscreen assay for antagonists of the orexin 1 receptor (OX1R; HCRTR1): Homogeneous Time Resolved Fluorescence (HTRF)-based cell-based dose response assay for antagonists of the orexin 2 receptor (OX2R; HCRTR2), run by assay provider. It counts as functional.
Experiment [7] addresses T1, Orexin/Hypocretin receptor type 1. Description: Homogeneous Time Resolved Fluorescence (HTRF)-based cell-based high throughput dose response assay for antagonists of the orexin 1 receptor (OX1R; HCRTR1). [Related pubchem assays (depositor defined):AID434989, AID435008, AID463079, AID485270, AID492963, AID492964, AID492965, AID493232, AID504717, AID504718]. It counts as functional. (In TR-FRET formats the signal depends on donor and acceptor labels being close together.)

A further experiment relates to CHO-K1. Nature of the experiment: Counterscreen for antagonists of the orexin 1 receptor (OX1R; HCRTR1): Homogeneous time resolved fluorescence (HTRF)-based cell-based dose response assay to identify antagonists of the parental CHO-K1 cell line. [Related pubchem assays (depositor defined):AID434989, AID435008, AID463079, AID485270, AID492963, AID492964, AID492965, AID493232, AID504699, AID504701]. As to conditions: Cricetulus griseus. It counts as functional.

The next experiment deals with Wee1-like protein kinase (Homo sapiens, UniProt P30291). Nature of the experiment: Navigating the Kinome. Panel member name: WEE1. It counts as functional.
Experiment [8] has as its target Cell division cycle 7-related protein kinase (Homo sapiens, UniProt O00311). It counts as functional.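 Also: value obtained from a kinome-wide kinase panel.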
Experiment [9] in a line: cAMP pathway inhibition in counterscreen cell line – TR-FRET cAMP detection, counter-screen for MC4R biased antagonist project, dose response (AID 602305).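 Also: U2OS cells stimulated with forskolin near its EC80 as the cAMP inducer; potency is for inhibition of forskolin-stimulated cAMP signaling.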 It counts as functional, cell-based.
In another experiment the target is Melanocortin receptor 4 (Homo sapiens, UniProt P32245). Nature of the experiment: inhibitors of MC4R cAMP signaling – cell-based, TR-FRET, biased antagonists, dose response (AID 602298).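 Also: antagonist potency against agonist-stimulated cAMP production.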 It counts as functional.
Experiment [10] concerns the target T3, Microphthalmia-associated transcription factor (Homo sapiens, UniProt O75030).
T3 sequence (O75030 whole entry): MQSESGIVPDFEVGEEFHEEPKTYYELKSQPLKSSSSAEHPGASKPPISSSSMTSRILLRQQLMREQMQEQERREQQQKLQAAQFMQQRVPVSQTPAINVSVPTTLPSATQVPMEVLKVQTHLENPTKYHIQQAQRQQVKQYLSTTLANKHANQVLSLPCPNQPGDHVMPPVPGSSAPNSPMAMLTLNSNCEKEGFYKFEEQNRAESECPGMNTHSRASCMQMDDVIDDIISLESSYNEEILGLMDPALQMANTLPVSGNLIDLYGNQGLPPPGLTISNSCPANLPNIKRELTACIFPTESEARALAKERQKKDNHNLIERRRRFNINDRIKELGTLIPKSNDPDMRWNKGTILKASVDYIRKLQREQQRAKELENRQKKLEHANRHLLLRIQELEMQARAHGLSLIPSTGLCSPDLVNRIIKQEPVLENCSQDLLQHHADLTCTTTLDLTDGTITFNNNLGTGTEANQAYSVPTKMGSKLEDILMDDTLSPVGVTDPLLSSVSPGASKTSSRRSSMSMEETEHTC
Description: reducers of TRPM1 reporter luminescence, concentration series – cell-based, SK-MEL-5, cherry-picked, set 3, MITF inhibitor project, dose response (AID 493073).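 Also: SK-MEL-5 melanoma cells with luciferase driven by the MITF target TRPM1 promoter.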 It counts as functional.

Experiment [11] in a line: Luminescence Cell-Based Dose Retest to Confirm Inhibitors of Cancer Stem Cells. [Related pubchem assays (depositor defined):AID2717, AID2721]. It counts as functional. As to conditions: Homo sapiens.
Experiment [12] deals with Vascular endothelial growth factor receptor 1 (Homo sapiens, UniProt P17948). It counts as functional.
The target of experiment [13] is Dual specificity tyrosine-phosphorylation-regulated kinase 1A (Homo sapiens, UniProt Q13627). It counts as functional.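 Also: measured against DYRK1A as one member of a broad kinome profiling panel.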
For experiment [14], the target named is Death-associated protein kinase 3 (Homo sapiens, UniProt O43293). It counts as functional.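 Also: measured as one member of a kinome-wide profiling panel.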
Experiment [15] can be described thus: blockers of CRF-binding protein–CRF-R2 complex – cell-based, uHTS hits, 384-well, dose response (AID 651639). It counts as functional, Homo sapiens. As to conditions: read-out: IC50_Mean.
Experiment [16] deals with T4, Corticotropin-releasing factor receptor 2/Corticotropin-releasing factor-binding protein (Homo sapiens, UniProt P24387+Q13324).
T4 sequence (Q13324 whole entry): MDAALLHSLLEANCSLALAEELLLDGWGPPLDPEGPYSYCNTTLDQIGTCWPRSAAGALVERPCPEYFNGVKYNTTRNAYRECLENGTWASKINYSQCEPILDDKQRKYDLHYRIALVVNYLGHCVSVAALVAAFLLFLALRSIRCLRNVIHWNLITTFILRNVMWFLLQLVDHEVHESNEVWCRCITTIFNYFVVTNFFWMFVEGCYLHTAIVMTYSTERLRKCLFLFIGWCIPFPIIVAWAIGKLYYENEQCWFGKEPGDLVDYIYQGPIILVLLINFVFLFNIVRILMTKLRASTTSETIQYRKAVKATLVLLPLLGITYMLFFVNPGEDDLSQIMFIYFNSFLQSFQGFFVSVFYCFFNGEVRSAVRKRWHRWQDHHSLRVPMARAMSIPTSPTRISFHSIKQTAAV
T4 sequence (P24387 whole entry): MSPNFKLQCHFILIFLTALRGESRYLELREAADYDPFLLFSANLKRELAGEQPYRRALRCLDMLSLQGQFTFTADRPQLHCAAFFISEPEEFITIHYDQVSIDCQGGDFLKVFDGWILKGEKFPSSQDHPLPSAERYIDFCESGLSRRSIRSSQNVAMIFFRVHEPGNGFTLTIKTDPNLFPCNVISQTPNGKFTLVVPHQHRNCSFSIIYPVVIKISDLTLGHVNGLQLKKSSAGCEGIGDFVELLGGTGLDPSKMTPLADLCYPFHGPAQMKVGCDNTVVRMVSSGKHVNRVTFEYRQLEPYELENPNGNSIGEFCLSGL
Description: Dose Response confirmation of uHTS hits for small molecule antagonists of the CRF-binding protein and CRF-R2 receptor complex. It counts as functional. The note with it: read-out: IC50_Mean.

A further experiment has as its target Genome polyprotein (dengue virus type 2, UniProt P29990). Description: flavivirus cap methylation enzyme inhibition – biochemical, confirmation dose response, primary screen (AID 588689). It counts as functional.
Experiment [17] addresses T4, Corticotropin-releasing factor receptor 2/Corticotropin-releasing factor-binding protein. Description: activators of CRF receptor 2 with binding protein – uHTS hits, confirmation (AID 602473). It counts as functional. The note with it: read-out: EC50_Mean.
Experiment [18] can be described thus: Luminescence Cell-Based Dose Confirmation HTS to Identify Inhibitors of Polyadenylation. It counts as functional.
Another experiment has as its system Vero. Nature of the experiment: viability of Vero cells under compound – cytotoxicity control for flavivirus capping enzyme inhibitors (AID 588742). It counts as functional. As to conditions: Chlorocebus sabaeus.
For another experiment, the target named is LIM domain kinase 1 (Homo sapiens, UniProt P53667). Nature of the experiment: Navigating the Kinome. Panel member name: LIMK1. It counts as functional.
The target of experiment [19] is Melanin-concentrating hormone receptor 1 (Homo sapiens, UniProt Q99705). Nature of the experiment: Late-stage fluorescence-based counterscreen for antagonists of the G-protein coupled receptor 7 (GPR7): cell-based dose response assay to identify antagonists of the melanin-concentrating hormone receptor 1 (MCHR1) Set 5. It counts as functional.
The target of experiment [20] is Neuropeptides B/W receptor type 1 (Homo sapiens, UniProt P48145). Description: human NPBW1 receptor blockade, IC50 – cell-based, fluorescence, dose response, set 5, late-stage follow-up (AID 588566). It counts as functional.
A short description of experiment [21]: Vero cell cytotoxicity, dose response, cytotoxicity control for M. tuberculosis growth inhibitor project, Vero cells, purified and synthesized compounds, set 4 (AID 504854). It counts as functional. The note with it: Mycobacterium tuberculosis.
A short description of experiment [22]: THP-1 cell cytotoxicity, cytotoxicity control, set 4 (AID 504911). As to conditions: Mycobacterium tuberculosis. It counts as functional.
A further experiment addresses Aurora kinase B (Homo sapiens, UniProt Q96GD4). It counts as functional.
A further experiment addresses Aurora kinase A (Homo sapiens, UniProt O14965). It counts as functional.
Experiment [23] concerns the target Vascular endothelial growth factor receptor 2 (Homo sapiens, UniProt P35968). It counts as functional.

T2 sequence (O43614 whole entry): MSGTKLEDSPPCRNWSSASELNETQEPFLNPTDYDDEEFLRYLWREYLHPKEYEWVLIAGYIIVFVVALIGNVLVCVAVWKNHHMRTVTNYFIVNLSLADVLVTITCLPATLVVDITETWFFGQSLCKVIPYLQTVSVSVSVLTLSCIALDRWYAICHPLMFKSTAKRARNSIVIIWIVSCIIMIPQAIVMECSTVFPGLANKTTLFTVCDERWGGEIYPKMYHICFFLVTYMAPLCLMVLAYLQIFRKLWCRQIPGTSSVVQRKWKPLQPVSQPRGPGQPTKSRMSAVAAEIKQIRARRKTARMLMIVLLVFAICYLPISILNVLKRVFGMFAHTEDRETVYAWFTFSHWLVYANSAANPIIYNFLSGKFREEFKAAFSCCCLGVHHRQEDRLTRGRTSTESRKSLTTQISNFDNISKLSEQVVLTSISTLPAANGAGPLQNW
T1 sequence (O43613 whole entry): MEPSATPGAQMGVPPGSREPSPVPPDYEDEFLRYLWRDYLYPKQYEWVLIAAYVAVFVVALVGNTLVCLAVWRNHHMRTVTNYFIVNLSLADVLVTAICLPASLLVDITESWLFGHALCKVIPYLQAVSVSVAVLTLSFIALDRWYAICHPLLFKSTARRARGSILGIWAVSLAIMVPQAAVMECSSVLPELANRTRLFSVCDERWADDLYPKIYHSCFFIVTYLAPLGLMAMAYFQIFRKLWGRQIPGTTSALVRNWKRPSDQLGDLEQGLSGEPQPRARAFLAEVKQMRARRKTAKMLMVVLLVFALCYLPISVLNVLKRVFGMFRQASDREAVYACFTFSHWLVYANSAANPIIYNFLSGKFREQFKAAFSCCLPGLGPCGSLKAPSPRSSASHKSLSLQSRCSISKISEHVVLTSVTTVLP
Sequence of LIM domain kinase 1 (P53667 whole entry, the tested form may be a part): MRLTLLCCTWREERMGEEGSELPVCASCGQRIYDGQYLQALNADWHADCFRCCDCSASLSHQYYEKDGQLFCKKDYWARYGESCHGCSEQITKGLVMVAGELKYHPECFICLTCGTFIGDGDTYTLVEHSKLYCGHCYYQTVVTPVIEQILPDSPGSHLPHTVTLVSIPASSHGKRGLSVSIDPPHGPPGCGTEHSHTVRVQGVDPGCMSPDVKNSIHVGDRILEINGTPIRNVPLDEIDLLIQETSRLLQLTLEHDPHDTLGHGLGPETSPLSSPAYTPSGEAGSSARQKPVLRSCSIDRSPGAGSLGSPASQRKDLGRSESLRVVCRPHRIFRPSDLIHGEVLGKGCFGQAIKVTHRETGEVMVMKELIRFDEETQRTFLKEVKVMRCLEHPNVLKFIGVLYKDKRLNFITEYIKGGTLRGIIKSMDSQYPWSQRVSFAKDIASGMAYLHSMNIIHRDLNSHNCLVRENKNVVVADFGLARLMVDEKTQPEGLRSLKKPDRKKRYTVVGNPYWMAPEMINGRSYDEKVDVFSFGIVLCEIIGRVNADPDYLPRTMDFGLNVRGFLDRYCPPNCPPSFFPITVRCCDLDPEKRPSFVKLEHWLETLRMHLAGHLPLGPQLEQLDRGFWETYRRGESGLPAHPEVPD
Sequence of Aurora kinase B (Q96GD4 whole entry): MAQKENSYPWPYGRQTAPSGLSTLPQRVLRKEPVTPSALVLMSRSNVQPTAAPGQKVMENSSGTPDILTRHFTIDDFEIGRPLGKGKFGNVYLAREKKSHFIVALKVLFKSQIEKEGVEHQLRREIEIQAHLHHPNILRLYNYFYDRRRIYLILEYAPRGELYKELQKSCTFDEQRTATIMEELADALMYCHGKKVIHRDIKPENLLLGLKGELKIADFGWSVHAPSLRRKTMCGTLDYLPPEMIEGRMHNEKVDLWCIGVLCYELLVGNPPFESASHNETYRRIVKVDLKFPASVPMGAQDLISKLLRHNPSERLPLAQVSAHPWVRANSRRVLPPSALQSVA
Sequence of Glycogen synthase kinase-3 beta (P49841 whole entry): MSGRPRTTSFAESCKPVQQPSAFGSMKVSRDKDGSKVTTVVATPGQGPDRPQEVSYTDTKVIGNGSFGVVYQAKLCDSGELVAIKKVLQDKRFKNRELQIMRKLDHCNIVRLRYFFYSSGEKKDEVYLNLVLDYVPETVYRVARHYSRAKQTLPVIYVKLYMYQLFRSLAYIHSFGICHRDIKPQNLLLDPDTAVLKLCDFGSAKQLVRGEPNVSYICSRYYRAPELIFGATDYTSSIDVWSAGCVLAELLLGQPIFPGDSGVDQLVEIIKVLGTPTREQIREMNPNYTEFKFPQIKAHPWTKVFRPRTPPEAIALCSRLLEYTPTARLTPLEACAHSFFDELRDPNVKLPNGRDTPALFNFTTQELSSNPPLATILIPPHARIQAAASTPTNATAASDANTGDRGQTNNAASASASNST
Sequence of Vascular endothelial growth factor receptor 2 (P35968 whole entry): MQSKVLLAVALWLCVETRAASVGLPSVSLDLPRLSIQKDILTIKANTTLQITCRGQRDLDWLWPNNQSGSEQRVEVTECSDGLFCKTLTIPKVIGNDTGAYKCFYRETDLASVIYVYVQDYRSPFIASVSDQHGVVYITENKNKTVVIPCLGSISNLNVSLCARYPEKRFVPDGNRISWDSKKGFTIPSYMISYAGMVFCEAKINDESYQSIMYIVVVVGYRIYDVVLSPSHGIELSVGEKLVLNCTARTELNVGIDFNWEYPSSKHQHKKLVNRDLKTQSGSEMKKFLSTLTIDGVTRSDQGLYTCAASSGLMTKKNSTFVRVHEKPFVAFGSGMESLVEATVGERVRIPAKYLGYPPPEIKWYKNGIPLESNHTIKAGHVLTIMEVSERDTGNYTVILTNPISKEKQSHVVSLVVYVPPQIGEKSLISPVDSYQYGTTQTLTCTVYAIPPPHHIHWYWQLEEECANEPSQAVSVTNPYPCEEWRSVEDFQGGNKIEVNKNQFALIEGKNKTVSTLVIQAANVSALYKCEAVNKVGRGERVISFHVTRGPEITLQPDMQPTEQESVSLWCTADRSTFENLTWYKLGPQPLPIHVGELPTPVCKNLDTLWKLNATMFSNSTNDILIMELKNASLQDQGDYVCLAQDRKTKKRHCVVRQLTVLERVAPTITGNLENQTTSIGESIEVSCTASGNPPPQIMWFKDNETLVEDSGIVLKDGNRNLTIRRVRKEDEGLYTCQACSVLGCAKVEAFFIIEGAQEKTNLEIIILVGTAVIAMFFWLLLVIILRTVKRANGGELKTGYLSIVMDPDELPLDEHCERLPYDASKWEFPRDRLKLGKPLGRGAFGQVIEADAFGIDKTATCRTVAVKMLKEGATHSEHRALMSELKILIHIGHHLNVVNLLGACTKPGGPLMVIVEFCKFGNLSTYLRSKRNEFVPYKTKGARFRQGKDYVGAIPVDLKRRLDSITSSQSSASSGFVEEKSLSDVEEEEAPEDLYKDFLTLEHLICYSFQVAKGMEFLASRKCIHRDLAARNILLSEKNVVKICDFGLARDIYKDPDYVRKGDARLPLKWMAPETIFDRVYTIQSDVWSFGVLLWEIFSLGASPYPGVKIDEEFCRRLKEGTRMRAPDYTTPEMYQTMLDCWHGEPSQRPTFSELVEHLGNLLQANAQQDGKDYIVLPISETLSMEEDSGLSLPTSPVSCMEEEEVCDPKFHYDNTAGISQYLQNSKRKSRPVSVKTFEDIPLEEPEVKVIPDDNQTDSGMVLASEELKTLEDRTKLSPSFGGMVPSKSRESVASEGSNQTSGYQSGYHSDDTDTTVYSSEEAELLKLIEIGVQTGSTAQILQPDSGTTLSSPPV
Sequence of Vascular endothelial growth factor receptor 1 (P17948 whole entry): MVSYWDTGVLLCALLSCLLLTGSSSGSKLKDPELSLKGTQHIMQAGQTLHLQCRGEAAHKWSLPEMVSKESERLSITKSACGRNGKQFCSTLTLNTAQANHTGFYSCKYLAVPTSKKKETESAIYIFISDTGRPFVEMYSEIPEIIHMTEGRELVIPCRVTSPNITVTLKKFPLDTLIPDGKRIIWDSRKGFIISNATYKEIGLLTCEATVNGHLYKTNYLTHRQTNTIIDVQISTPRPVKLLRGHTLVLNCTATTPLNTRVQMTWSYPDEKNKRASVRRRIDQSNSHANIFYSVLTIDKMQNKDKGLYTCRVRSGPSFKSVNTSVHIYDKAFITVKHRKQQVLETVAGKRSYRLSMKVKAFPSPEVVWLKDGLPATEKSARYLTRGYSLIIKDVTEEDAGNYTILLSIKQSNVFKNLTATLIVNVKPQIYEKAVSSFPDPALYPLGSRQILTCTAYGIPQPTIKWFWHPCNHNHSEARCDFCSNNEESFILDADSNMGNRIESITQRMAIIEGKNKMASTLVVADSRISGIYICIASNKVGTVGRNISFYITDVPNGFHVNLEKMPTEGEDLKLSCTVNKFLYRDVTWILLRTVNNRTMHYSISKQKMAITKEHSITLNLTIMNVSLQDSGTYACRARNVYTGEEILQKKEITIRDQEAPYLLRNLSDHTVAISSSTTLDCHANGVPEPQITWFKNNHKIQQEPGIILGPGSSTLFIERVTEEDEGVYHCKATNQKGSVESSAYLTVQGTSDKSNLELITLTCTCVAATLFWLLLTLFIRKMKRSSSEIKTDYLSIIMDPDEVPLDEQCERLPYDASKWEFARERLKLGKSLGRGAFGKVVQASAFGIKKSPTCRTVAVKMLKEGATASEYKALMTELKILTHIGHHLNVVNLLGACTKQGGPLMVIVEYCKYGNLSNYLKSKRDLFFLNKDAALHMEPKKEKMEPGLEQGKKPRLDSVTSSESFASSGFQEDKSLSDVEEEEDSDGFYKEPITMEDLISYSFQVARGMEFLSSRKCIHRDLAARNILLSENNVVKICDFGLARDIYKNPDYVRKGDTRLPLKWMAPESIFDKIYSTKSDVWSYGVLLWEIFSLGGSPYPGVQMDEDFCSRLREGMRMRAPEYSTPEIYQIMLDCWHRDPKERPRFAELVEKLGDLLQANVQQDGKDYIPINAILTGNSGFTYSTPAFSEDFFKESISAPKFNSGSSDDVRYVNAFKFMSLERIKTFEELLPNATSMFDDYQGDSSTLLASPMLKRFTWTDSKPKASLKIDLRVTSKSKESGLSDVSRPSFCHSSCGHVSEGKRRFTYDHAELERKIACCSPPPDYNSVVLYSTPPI

`O=C(Nc1ccsc1C(=O)NC1CCCCC1)c1ccc(F)cc1`: the values for the AC50 in [1] and in experiment [2] were 24.9 µM (active) and 6.28 µM (active), respectively.
On to `Cc1ccc([C@@H]2CC=C(C(=O)O)[C@H](c3cccc(Cl)c3)N2S(=O)(=O)c2ccccc2C)cc1`, for which the IC50 in experiment [3] was 18.7 µM (inactive); in experiment [4], 4.6 µM (active); at Orexin receptor type 2 [5], 3.9 µM (active); on Orexin receptor type 2 [6], 0.67 µM (active); in experiment [7] it was 0.601 µM (active); in the experiment on CHO-K1 it was > 66.2 µM (inactive).
`Fc1ccc(Nc2ncnc(Nc3ccc4[nH]ncc4c3)n2)cc1`: the Ki (in general, the equilibrium dissociation constant of an inhibitor or competing ligand from its target) on Wee1-like protein kinase is > 3.16 µM (inactive); in experiment [8] it was 0.126 µM (active).
Take `CCOC(=O)C(=Cc1ccc(-n2ccnc2)cc1)C(=O)OCC`: the IC50 (in experiment [9]; on Melanocortin receptor 4) was > 64.6 µM (inactive) each time. Also, the AC50 (as a rule, the concentration at which the activity in the assay is half-maximal) in [10] was 9.38 µM (active); in [11] it was 2.95 µM (active).
Take `O=c1sn(-c2ccc3c(c2)OCO3)c(=O)n1Cc1ccccc1`: the figures for the Ki in [12], in experiment [13] and in experiment [14] were 2 µM (active), 1.26 µM (active) and 3.16 µM (active), respectively.
`O=C1S/C(=C\c2ccc(O)c([N+](=O)[O-])c2)C(=O)N1c1ccccc1Cl`: the IC50 in experiment [15] was > 20 µM (inactive); in [16], 24.4 µM (active); on Genome polyprotein, 40.6 µM (active). Moreover, the EC50 in [17] was > 53 µM (inactive); in experiment [18], > 120 µM (not active). In the experiment with Vero, the CC50 (in general, the concentration that lowers cell viability or growth by half) is > 40 µM (active).
Consider `CCc1ccc(NC(=O)c2cnn3c(-c4ccccc4)ccnc23)cc1`, for which the Ki at LIM domain kinase 1 was 3.16 µM (active).
Regarding `CCOC(=O)C(C#N)c1c(Cl)cnn(Cc2cccc3ccccc23)c1=O` (stereo unspecified), the IC50 was 7.76 µM (active) in experiment [19] and 0.571 µM (active) in experiment [20].
Take `O=C(CSc1nc2ccccc2c(=O)[nH]1)NC1CCCC1`: the CC50 in experiment [21] and in experiment [22] was > 100 µM (active) in each case.
As for `CCS(=O)(=O)Nc1ccc2c(c1)C(=NO)c1ccccc1-2`, the Ki at Aurora kinase B is 0.0316 µM (active); at Aurora kinase A, 0.631 µM (active); in [23], 3.16 µM (active).
